Growth inhibition and IC50 data for one molecule are collected here from ChEMBL document CHEMBL1140349, “A new simple and high-yield synthesis of suberoylanilide hydroxamic acid and its inhibitory effect alone or in combination with retinoids on proliferation of human prostate cancer cells” (J Med Chem, 2005).

The term IC50 denotes the concentration needed to halve the response being measured. A low value points to greater potency in that assay.

In test [1] the test system is LNCaP. Description: Concentration required to inhibit growth of human LNCaP prostate cancer cells. It is filed as functional.
Test [2] has as its system LNCaP. Description: Concentration required to inhibit human LNCaP prostate carcinoma cells. It counts as functional, cell-based.

Regarding `CC1=C(/C=C/C(C)=C/C=C/C(C)=C/C(=O)Nc2ccc(O)cc2)C(C)(C)CCC1n1ccnc1` (configuration not stated), the Growth inhibition in the test with LNCaP [1] is 5 µM. For the same molecule, the IC50 in the test with LNCaP [2] is 5.5 µM.
